Data published in patent US3959272A, “Aminoalkyl esters of 2-anilino-nicotinic acids” (Societe Anonyme dite: Hexachime, priority 1972, dated 1976).

Legend:
[1] = Analgesic activity: Randall and Selitto's test (beer yeast paw, pain threshold); assay type: in vivo, rat
Description: This activity was measured by Siegmund's test in mice and Randall and Selitto's test in the rat. Groups of ten male rats each weight 120 to 140 g received by subcutaneous plantar injection 0.05 ml of a 5% aqueous suspension of beer yeast. 2 Hours after this treatment they received the compound under test orally and 1 hour after administration of this compound the paw which had been injected and the contralateral paw were subjected to increasing pressure. The appearance of the pain threshold was noted.

[2] = Analgesic activity: Siegmund's test (phenylbenzoquinone painful reactions); assay type: in vivo; settings: Mus musculus, po, read-out: percentage inhibition of reactions
Description: This activity was measured by Siegmund's test in mice and Randall and Selitto's test in the rat.
Groups of six mice received the compound under test orally 1 hour before intraperitoneal injection of 0.2 ml of an 0.02% of solution of phenylbenzoquinone. The number of painful reactiors from the fifth to the tenth minute after the injection of phenylbenzoquinone was counted.

[3] = Escape test; assay type: in vivo; settings: Mus musculus, ip, 0.5 h, read-out: Percentage inhibition (number of attempts to escape)
Description: Groups of 8 mice were placed in sub groups of 4 in an enclosure from which they could escape by an inclined plane. The number of attempts to escape during 5 minutes were counted half an hour after intraperitoneal administration of the compound under test.

[4] = Anti-inflammatory activity: oedema provoked by carragenin in the rat; assay type: in vivo; settings: po, read-out: percentage inhibition of oedema
Description: The method used was as follows.
The anti-inflammatory activity was measured on oedema provoked by carragenin in the rat. Groups of six male rats each weighing 120 to 130 g received the compound under test orally in suspension in "tween 80", half the dose being given 2 hours before and the other half 1/2 hour before the subcutaneous plantar injection of 0.05 ml of a 1 % carragenin solution. The volume of the injected paw was measured by plethysmography at regular intervals. Table 1 below gives the percentage inhibition of the oedema with reference to untreated controls.

[5] = Solubility in water; assay type: physicochemical; settings: monohydrochloride
[6] = Antagonism of convulsions produced by cardiazole; assay type: in vivo; settings: Mus musculus, ip, read-out: Percentage inhibition of tonic convulsions
Description: Groups of 6 mice received the compound under test 30 minutes before introperitoneal injection of 160 mg/kg of cardiazole. The action of the compound under test on the tonic convulsion phase was observed.

## Cc1cccc(Nc2ncccc2C(=O)OCC(C)(C)N(C)C)c1C [Example 3, 2-Dimethylamino-2-methylpropyl nixylate]
[1]; with yeast, 16 mg/kg orally
  percentage increase of pain threshold: 33%
[1]; with yeast, 32 mg/kg orally
  percentage increase of pain threshold: 42%
[1]; with yeast, 64 mg/kg orally
  percentage increase of pain threshold: 66%
[1]; with yeast, 128 mg/kg orally
  percentage increase of pain threshold: 41%
[1]; without yeast, 32 mg/kg orally
  percentage increase of pain threshold: 0%
[1]; without yeast, 64 mg/kg orally
  percentage increase of pain threshold: 2%
[1]; without yeast, 128 mg/kg orally
  percentage increase of pain threshold: 11%
[1]; without yeast, 256 mg/kg orally
  percentage increase of pain threshold: 0%
[2]; 64 mg/kg orally
  inhibition in vivo at 64 mg/kg: 31%
[2]; 128 mg/kg orally
  inhibition in vivo at 128 mg/kg: 49%
[2]; 256 mg/kg orally
  inhibition in vivo at 256 mg/kg: 75%
[3]; 8 mg/kg intraperitoneally
  change in vivo at 8 mg/kg: -16%
[3]; 16 mg/kg intraperitoneally
  change in vivo at 16 mg/kg: -15%
[3]; 32 mg/kg intraperitoneally
  change in vivo at 32 mg/kg: -30%
[3]; 64 mg/kg intraperitoneally
  change in vivo at 64 mg/kg: -67%
[3]; 128 mg/kg intraperitoneally
  change in vivo at 128 mg/kg: -95%
[4]; 128 mg/kg orally
  inhibition in vivo at 128 mg/kg: 0%
[4]; 256 mg/kg orally
  inhibition in vivo at 256 mg/kg: 72%
[4]; 512 mg/kg orally
  inhibition in vivo at 512 mg/kg: 67%
[5]
  solubility in water: soluble in water
[6]; 8 mg/kg intraperitoneally
  inhibition in vivo at 8 mg/kg: 0%
[6]; 16 mg/kg intraperitoneally
  inhibition in vivo at 16 mg/kg: 5%
[6]; 32 mg/kg intraperitoneally
  inhibition in vivo at 32 mg/kg: 16%
[6]; 64 mg/kg intraperitoneally
  inhibition in vivo at 64 mg/kg: 83%
[6]; 128 mg/kg intraperitoneally
  inhibition in vivo at 128 mg/kg: 100%
